Entries after “also recorded” stand apart in the source; their conditions may differ. Where two headings read alike, the source gives them in different places.
Tests used:
[1] = test system: endogenous TFEB; experiment: TFEB nuclear translocation, immunocytochemistry high-content imaging; format: cell-based; details: for TFEB %: PKIS2 primary screening; for TFEB translocation (in words): SH-SY5Y
[2] = test system: endogenous TFE3; experiment: TFE3 nuclear translocation, immunocytochemistry high-content imaging; format: cell-based; details: for TFE3 %: PKIS2 primary screening; for nTFE3 %: primary screen, 1 µM; for nTFE3 % / TFE3 translocation (in words) / EC50 / Best-Fit Values Span: SH-SY5Y; for Best-Fit Values Span: TFE3 assay concentration response; for Summary: activity in TFE3 assays compared with original NK-140, OT activity
[3] = test system: SH-SY5Y cells; details: for DQ Intensity / DQ Spot: PKIS2 primary screening; for DQ Intensity: DQ Red BSA intensity; for DQ Spot: DQ Red BSA spot count
From the text: The PKIS2 Library was supplied by The Structural Genomics Consortium at the University of North Carolina at Chapel Hill.

[4] = target: T1, PRKD1 (Homo sapiens, UniProt Q15139); details: cited from earlier work
T1 sequence (Q15139 1-912): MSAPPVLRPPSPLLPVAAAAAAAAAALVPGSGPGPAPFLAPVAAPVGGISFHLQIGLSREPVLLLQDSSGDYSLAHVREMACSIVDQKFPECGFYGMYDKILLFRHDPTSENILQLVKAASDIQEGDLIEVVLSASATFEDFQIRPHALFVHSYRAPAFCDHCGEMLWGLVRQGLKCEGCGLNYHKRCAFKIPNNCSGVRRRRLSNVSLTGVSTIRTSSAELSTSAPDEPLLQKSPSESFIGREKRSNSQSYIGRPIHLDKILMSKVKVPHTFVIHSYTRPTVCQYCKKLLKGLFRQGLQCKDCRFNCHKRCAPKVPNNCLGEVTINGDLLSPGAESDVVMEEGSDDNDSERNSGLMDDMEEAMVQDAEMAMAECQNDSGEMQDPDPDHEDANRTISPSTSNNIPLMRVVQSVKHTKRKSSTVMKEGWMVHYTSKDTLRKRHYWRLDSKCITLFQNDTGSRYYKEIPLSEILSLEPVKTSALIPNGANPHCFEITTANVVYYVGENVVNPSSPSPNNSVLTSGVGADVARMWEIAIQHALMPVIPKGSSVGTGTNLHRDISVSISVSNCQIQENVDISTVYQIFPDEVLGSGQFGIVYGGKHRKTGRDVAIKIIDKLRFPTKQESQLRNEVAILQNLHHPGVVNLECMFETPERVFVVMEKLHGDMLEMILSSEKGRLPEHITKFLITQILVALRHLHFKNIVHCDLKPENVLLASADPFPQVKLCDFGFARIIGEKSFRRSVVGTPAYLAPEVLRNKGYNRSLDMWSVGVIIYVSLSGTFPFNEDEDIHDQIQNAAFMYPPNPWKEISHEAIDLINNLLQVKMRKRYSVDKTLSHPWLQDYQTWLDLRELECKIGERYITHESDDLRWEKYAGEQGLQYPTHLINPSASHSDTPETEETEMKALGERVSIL

[5] = target: CDC42BPG/DMPK2 (Homo sapiens, UniProt Q6DT37); details: cited from earlier work
Chain of CDC42BPG/DMPK2 (Q6DT37 whole entry): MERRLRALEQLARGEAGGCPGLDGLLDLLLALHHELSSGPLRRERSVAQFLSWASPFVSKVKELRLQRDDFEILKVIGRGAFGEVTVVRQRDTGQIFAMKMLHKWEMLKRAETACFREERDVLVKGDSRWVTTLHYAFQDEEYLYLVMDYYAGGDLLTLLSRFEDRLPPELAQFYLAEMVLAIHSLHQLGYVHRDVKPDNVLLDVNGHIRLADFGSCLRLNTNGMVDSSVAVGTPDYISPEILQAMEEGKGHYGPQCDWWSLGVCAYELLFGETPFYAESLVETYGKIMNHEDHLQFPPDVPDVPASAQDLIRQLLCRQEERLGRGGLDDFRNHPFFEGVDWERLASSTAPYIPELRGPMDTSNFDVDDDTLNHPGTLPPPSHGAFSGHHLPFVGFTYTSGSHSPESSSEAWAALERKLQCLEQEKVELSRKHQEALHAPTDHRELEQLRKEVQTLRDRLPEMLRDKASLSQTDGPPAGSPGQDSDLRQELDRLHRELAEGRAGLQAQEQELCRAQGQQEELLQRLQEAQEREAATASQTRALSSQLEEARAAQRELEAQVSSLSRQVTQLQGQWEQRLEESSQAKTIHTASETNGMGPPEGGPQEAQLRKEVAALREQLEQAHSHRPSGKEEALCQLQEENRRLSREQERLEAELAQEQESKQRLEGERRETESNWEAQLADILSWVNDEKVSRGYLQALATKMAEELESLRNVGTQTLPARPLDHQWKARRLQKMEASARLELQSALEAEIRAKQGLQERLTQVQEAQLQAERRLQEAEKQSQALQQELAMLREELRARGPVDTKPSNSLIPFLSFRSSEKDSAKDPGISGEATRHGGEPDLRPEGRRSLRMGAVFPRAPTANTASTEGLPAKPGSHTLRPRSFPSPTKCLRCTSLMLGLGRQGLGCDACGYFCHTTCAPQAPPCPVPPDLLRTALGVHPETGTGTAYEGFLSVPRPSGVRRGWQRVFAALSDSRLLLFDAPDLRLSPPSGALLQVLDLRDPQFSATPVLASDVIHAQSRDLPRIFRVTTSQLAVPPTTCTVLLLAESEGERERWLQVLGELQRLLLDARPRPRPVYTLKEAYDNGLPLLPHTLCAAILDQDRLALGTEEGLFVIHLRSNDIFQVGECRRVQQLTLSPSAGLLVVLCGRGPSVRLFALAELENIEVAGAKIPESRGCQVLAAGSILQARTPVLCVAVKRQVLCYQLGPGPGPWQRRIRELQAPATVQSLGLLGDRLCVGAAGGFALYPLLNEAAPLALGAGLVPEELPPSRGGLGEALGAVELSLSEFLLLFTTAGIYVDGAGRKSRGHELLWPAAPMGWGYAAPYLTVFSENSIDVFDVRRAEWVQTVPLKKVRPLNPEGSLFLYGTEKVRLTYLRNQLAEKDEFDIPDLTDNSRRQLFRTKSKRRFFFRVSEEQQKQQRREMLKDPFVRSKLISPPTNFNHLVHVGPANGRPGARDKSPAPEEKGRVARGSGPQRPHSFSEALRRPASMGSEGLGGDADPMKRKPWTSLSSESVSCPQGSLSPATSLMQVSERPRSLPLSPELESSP

[6] = target: CDC42BPB/MRCKB (Homo sapiens, UniProt Q9Y5S2); details: cited from earlier work
[7] = target: T2, ACVR1B (Homo sapiens, UniProt P36896); details: cited from earlier work
T2 sequence (P36896 24-505): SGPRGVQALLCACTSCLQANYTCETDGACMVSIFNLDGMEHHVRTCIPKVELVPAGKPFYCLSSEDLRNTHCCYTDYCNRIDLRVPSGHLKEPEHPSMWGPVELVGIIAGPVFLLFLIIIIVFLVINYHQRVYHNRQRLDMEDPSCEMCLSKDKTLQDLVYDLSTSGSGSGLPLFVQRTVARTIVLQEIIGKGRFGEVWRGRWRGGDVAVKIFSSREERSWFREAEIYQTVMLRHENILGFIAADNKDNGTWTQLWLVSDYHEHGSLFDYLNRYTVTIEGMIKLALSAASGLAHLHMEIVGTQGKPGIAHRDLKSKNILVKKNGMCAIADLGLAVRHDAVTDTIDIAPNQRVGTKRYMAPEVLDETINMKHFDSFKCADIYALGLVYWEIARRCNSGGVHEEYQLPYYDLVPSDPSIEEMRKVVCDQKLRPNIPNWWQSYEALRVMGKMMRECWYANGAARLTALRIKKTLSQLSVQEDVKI

[8] = target: TGFBR2 (Homo sapiens, UniProt P37173); details: cited from earlier work
Chain of TGFBR2 (P37173 23-567): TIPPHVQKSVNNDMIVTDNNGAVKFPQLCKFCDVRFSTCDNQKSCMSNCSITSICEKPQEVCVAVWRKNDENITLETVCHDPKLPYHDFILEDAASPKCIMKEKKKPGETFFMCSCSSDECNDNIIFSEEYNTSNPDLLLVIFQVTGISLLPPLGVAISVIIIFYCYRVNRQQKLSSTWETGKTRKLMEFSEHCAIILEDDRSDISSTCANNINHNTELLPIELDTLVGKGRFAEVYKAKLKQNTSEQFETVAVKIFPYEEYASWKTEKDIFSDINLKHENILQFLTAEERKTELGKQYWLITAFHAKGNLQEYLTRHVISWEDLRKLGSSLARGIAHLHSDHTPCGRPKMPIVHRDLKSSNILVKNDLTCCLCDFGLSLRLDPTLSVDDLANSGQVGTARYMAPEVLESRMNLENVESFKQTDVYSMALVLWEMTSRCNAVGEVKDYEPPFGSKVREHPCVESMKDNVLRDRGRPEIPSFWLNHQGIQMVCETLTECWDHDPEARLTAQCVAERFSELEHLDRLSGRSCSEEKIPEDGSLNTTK

[9] = target: T3, PRKD3 (Homo sapiens, UniProt O94806); details: cited from earlier work
T3 sequence (O94806 1-890): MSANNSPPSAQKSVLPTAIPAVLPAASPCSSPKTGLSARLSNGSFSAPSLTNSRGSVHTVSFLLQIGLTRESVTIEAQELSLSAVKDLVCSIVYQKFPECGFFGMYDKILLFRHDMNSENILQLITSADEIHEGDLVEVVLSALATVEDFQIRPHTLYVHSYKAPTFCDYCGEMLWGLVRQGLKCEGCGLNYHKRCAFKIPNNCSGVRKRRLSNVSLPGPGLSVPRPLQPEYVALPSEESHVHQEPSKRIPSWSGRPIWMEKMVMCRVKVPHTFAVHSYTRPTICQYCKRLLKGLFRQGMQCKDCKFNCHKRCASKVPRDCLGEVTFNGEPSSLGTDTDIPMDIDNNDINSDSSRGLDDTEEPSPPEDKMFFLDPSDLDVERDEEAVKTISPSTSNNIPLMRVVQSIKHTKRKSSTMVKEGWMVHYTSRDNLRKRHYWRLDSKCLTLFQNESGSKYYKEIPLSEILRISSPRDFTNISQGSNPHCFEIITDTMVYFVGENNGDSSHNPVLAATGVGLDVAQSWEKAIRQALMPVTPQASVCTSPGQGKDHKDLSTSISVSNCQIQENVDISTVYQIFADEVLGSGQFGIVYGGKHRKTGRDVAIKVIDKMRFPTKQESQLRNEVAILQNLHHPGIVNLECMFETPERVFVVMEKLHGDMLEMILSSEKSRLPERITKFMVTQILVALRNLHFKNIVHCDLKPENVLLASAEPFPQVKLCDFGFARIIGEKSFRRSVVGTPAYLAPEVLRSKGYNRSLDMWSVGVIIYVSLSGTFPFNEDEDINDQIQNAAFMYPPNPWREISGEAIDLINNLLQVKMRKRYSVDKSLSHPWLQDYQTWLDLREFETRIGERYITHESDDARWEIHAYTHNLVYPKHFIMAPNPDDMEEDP

[10] = target: T4, JAK1(JH2) (Homo sapiens, UniProt P23458); details: cited from earlier work
T4 construct: JAK1(JH2)
T4 sequence (P23458 583-855 limits assumed): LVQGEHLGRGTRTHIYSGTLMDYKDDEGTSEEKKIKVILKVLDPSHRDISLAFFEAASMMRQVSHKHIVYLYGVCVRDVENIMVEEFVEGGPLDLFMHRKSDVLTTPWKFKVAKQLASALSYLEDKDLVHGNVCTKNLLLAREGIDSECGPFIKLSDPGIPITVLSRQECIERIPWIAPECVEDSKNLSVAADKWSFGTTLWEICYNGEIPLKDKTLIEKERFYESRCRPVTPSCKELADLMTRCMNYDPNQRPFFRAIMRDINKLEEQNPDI

[11] = target: CSNK1D (Homo sapiens, UniProt P48730); details: cited from earlier work
Chain of CSNK1D (P48730 whole entry): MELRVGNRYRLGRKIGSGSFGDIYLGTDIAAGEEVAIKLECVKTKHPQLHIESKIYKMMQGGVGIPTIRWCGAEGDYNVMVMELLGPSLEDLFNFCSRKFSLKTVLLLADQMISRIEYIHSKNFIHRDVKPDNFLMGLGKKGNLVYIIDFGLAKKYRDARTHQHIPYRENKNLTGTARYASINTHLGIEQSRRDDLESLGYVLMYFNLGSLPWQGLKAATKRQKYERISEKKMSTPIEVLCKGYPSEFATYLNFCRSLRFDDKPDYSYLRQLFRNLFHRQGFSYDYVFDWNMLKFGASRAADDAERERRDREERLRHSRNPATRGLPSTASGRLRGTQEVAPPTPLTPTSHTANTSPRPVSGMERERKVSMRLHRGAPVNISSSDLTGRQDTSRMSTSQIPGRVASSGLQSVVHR

[12] = target: PIKFYVE (Homo sapiens, UniProt Q9Y2I7); details: cited from earlier work
Chain of PIKFYVE (Q9Y2I7 whole entry): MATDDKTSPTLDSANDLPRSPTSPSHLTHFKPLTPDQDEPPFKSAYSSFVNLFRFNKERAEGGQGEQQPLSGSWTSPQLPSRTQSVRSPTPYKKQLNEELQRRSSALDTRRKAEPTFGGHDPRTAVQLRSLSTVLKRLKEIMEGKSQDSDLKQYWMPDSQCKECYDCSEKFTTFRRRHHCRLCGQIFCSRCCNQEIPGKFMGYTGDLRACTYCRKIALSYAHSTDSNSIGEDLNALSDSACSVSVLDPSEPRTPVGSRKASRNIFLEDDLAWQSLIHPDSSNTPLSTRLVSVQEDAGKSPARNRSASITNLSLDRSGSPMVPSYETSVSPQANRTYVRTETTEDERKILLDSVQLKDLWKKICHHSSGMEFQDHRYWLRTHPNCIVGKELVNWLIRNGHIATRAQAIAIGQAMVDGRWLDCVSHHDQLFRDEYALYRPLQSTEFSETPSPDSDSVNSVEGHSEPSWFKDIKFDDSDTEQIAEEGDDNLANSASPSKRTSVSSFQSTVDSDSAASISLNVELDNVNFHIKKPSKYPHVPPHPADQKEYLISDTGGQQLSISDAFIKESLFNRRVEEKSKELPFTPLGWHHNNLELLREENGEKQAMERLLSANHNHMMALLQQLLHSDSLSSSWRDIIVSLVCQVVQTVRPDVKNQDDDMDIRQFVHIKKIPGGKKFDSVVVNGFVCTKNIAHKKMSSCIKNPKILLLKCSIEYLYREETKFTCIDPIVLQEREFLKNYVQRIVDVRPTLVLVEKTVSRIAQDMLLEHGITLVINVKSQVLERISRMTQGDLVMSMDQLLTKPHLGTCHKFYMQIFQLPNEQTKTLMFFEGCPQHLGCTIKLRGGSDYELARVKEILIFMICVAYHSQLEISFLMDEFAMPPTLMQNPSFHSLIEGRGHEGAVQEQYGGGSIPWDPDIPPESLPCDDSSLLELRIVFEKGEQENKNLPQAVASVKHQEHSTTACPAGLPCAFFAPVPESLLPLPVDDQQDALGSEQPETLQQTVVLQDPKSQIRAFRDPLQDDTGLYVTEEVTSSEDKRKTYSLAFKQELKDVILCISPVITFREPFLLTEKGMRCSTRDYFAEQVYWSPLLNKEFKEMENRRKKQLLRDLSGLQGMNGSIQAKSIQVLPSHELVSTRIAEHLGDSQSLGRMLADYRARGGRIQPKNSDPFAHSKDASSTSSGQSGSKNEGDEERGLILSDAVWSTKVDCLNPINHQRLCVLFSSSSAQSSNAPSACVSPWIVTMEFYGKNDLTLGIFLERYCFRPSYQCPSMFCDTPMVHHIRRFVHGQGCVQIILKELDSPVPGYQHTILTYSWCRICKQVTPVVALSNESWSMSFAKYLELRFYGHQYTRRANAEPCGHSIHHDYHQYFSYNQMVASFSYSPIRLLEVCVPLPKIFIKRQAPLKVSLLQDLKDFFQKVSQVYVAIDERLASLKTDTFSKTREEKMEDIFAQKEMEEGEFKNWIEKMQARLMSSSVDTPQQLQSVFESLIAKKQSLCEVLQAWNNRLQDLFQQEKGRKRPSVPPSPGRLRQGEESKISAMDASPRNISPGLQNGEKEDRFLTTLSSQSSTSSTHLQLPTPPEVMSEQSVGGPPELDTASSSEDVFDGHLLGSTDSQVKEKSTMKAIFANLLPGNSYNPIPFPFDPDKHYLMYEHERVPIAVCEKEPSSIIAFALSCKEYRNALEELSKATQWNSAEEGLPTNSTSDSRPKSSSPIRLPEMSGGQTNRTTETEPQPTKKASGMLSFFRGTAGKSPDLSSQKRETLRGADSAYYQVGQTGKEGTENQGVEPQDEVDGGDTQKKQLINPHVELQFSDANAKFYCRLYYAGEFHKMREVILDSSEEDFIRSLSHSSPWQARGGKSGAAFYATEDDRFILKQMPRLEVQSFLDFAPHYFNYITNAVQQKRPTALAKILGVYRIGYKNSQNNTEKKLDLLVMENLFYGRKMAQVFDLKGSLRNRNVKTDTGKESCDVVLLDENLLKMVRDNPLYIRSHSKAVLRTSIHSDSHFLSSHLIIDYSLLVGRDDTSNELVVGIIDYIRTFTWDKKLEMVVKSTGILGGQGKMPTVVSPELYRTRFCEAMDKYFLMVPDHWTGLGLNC

[13] = target: MTOR (Homo sapiens, UniProt P42345); details: cited from earlier work
[14] = test system: SH-SY5Y cells; experiment: Nuclear count from microscopy images (cellular growth and toxicity); details: for Nuclear Count: PKIS2 primary screening

Structure (SMILES) | TFEB % [1] | TFE3 % [2] | nTFE3 % ([2]; 24 h) | DQ Intensity [3] | DQ Spot [3] | KINOMEscan binding PRKD1 [4] | KINOMEscan binding CDC42BPG/DMPK2 [5] | KINOMEscan binding CDC42BPB/MRCKB [6] | KINOMEscan binding ACVR1B [7] | KINOMEscan binding TGFBR2 [8] | KINOMEscan binding PRKD3 [9] | KINOMEscan binding JAK1(JH2) [10] | KINOMEscan binding CSNK1D [11] | KINOMEscan binding PIKFYVE [12] | KINOMEscan binding MTOR [13] | Nuclear Count [14] | TFEB translocation (in words) ([1]; 24 h treatment) | TFE3 translocation (in words) ([2]; 24 h treatment) | Summary [2] | further results
Cc1ccc(-c2nc(Nc3ccncc3)c3ccccc3n2)s1 [GSK189015] | 4.14% | 15.06% | 15% | 116.90 | 105.30 | 18% | 13% | 21% | 0% | 21% | 22% | 38% | 33% | 63% | 10% | 75.74 | – | – | – | –
COc1ccc2nc(-c3cccc(C)n3)nc(Nc3ccncc3)c2c1 [GSK204919] | 4.22% | 7.07% | 7% | 144.99 | 139.38 | 92.4% | 91.1% | 94.1% | – | 10% | 100% | 80% | 49% | 81% | 43% | 98.76 | did not show TFEB and TFE3 activation | did not show TFEB and TFE3 activation | – | –
Cc1cccc(-c2cc(Nc3ccncc3)c3ccccc3n2)n1 [GSK223675] | 7.90% | 9.28% | 9.2% | 136.99 | 120.77 | 91.1% | 7% | 0% | 88% | 0% | 100% | 5% | 14% | 23% | 7% | 85.07 | – | – | – | –
Cc1cccc(-c2nc(C)cc(Nc3ccncc3)n2)n1 [GSK257997] | 2.98% | 9.74% | 9.7% | 78.64 | 86.70 | 78% | 89% | 81% | 78% | 4% | 85% | 0% | 43% | 27% | 13% | 128.02 | did not show TFEB and TFE3 activation | did not show TFEB and TFE3 activation | – | –
Cc1cccc(-c2nc(Nc3ccc4ncsc4c3)c3ccccc3n2)n1 [NK140] | – | – | – | – | – | – | – | – | – | – | – | – | – | – | – | – | modest TFEB and TFE3 translocation | modest TFEB and TFE3 translocation | Original | TFEB translocation (in words) ([1]; 48 h treatment): induced; also recorded: elevated TFEB and TFE3 translocation; EC50 ([2]; Homo sapiens, 24 h treatment, estimated, read-out: Cellular EC50 against TFE3): 0.65 µM; EC50 ([2]; Homo sapiens, TFE3 assay, 24 h, µM, read-out: Best-Fit Values EC50 (converted)): 0.64 µM; TFE3 translocation (in words) ([2]; 48 h treatment): induced; also recorded: elevated TFEB and TFE3 translocation; Best-Fit Values Span ([2]; 24 h): 37.55; DQ Red BSA fluorescence intensity (in words) ([3]; SH-SY5Y, 24 h treatment): no increases in DQ Red BSA intensity; DQ Red BSA intensity (in words) ([3]; SH-SY5Y, 48 h treatment): additional increase in DQ Red BSA intensity; Nuclear count (in words) ([14]; SH-SY5Y, 48 h treatment): small reduction in nuclear count from 0.75 µM
Cc1cccc(-c2nc(Nc3ccc4nn(C)cc4c3)c3ccccc3n2)n1 [NK167] | – | – | – | – | – | – | – | – | – | – | – | – | – | – | – | – | – | – | Weaker, Strong OT activity | EC50 ([2]; TFE3 assay, 24 h, second EC50 of biphasic/bell-shaped fit or OT (off-target) activity, unit inferred, read-out: Best-Fit Values EC50 (converted)): 1.05 µM; EC50 ([2]; TFE3 assay, 24 h, µM, read-out: Best-Fit Values EC50 (converted)): 1.04 µM
Cc1cccc(-c2nc(Nc3ccncc3)c3ccccc3n2)n1 [NK215] | – | – | – | – | – | – | – | – | – | – | – | – | – | – | – | – | – | – | Weaker | EC50 ([2]; Homo sapiens, 24 h, read-out: Best-Fit Values EC50): 2.04 µM; Best-Fit Values Span ([2]; 24 h): 18.17; KINOMEscan PRKD1 ([4]; PRKD1, Published KINOMEscan, ref original PKIS2 published data): 86; KINOMEscan CDC42BPG/DMPK2 [5]: 76; KINOMEscan CDC42BPB/MRCKB [6]: 63; KINOMEscan ACVR1B [7]: 94.3; KINOMEscan TGFBR2 ([8]; TGFBR2, Published KINOMEscan, ref original PKIS2 published data): 95.7; KINOMEscan PRKD3 ([9]; kinase PRKD3, Published KINOMEscan, ref original PKIS2 published data): 69; KINOMEscan JAK1(JH2domain-pseudokinase) ([10]; JAK1(JH2domain-pseudokinase), Published KINOMEscan, ref original PKIS2 published data): 74; KINOMEscan CSNK1D ([11]; CSNK1D, Published KINOMEscan, ref original PKIS2 published data): 73; KINOMEscan PIKFYVE ([12]; kinase PIKFYVE, Published KINOMEscan, ref original PKIS2 published data): 57; KINOMEscan MTOR ([13]; MTOR, Published KINOMEscan, ref original PKIS2 published data): 50

Reference: paper PMC9851200, “Multiparameter phenotypic screening for endogenous TFEB and TFE3 translocation identifies novel chemical series modulating lysosome function” (Autophagy, 2022)
